Assay results published in paper PMC11642940, “A New Demand for Improved Selectivity and Potency of Cyanine Dyes as Antiproliferative Agents Against Colorectal Cancer Cells” (Molecules, 2024).
Like-named read-outs stand apart in the source and are kept apart here.

Assays:
[1] = system: MCF-7 breast adenocarcinoma cells; test: MTT cell viability assay, MCF-7; conditions: for viability at 10 µM / IC50: Homo sapiens, MCF7, 72 h; for viability at 10 µM: read-out: cell viability percentage in relation to control, MCF-7; for IC50: read-out: IC50 MCF-7, MCF-7, 72 h incubation, MTT; for SI MCF-7 (selectivity index versus NHDF): MCF-7 versus NHDF, 72 h
Protocol: (§1) To evaluate the anticancer potential of monomethine cyanine dyes 1–12, a cell proliferation study was conducted using the 3-(4,5-dimethylthiazol-2-yl)-2,5-diphenyltetrazolium bromide (MTT) assay. For this preliminary evaluation, a concentration of 10 µM for each dye was tested, with the well-established chemotherapy agent 5-fluorouracil (5-FU) serving as a positive control. The assay included normal human dermal fibroblasts (NHDF) as non-tumor cells, alongside tumor cell lines from colorectal (Caco-2), prostate (PC-3), and breast (MCF-7) adenocarcinomas.
(§2) The cell lines used in this study (Caco-2, MCF-7, PC-3, and NHDF) were obtained from the American Type Culture Collection (ATCC, Manassas, VA, USA) and cultured in 75 cm^2 culture flasks at 37 °C in a humidified atmosphere with 5% CO2 in a LEEC Culture Safe Precision CO2 Incubator. PC-3 cells were grown in Roswell Park Memorial Institute (RPMI) medium supplemented with 10% of inactivated Fetal Bovine Serum (FBS) and 1% of an antibiotic mixture (Sp; 10,000 U/mL of penicillin G and […] of streptomycin). MCF-7 and Caco-2 cell lines were both cultured using Dulbecco’s Modified Eagle Medium (DMEM). However, the medium for MCF-7 cells was complemented with 10% of inactivated FBS and 1% of antibiotic/antimycotic mixture (Ab; 10,000 U/mL of penicillin G, […] of streptomycin and 25 µg/mL of amphotericin B), and the medium for Caco-2 cells was supplemented with 20% of inactivated FBS and 1% of Sp. Finally, RPMI medium supplemented with 10% FBS, 2 mM of L-glutamine, 10 mM of 4-(2-hydroxyethyl)-1-piperazineethanesulfonic acid (HEPES), 1 mM of sodium pyruvate, and 1% of Ab was used to culture NHDF cells. The culture media were renewed every two to three days until near confluence was achieved. Then, cells were detached using a solution of 0.125 g/L of trypsin and 0.02 g/L of ethylenediaminetetracetic acid (EDTA), counted by the trypan blue method, resuspended, and adequately seeded to continue the culture in 75 cm^2 flasks or for the experiments described below. All manipulations were performed in a Labculture Class II A2 Biological Safety Cabinet.
(§3) After trypsinization, cells were seeded in 96-well culture plates (100 µL; 2 × 10^4 cells/mL), and after 48 h (for adherence), they were incubated with the compounds under study in the absence of light for a duration of 72 h. Then, the medium was removed, and fresh incomplete culture medium (without FBS and Ab or Sp) and MTT solution [5 mg/mL in phosphate buffer saline (PBS)] were added to each well, followed by 4 h of incubation. After this, the medium containing MTT was removed and DMSO was added to dissolve formazan crystals. The absorbance of each well at 570 nm was determined using a microplate spectrophotometer Bio-Rad (Hercules, CA, USA) xMark. Untreated cells were considered the negative control, and 5-FU, a clinically used drug, was considered the positive control. For data analysis, the relative cell proliferation relative to the negative control cells was calculated. For each cell viability study, at least two independent assays in quadruplicate were performed. Increasing concentrations of the compounds between 0.001 and 100 μM were used to determine the IC50 values.

[2] = system: Caco-2 colorectal adenocarcinoma cells; test: MTT cell viability assay, Caco-2; conditions: Homo sapiens, Caco-2, 72 h; for IC50: read-out: IC50 Caco-2; for viability at 10 µM: read-out: cell viability percentage in relation to control, Caco-2
Protocol: as §1, §2, §3

[3] = MTT cell viability assay, Caco-2; conditions: human
Protocol: as §1, §2, §3

[4] = system: normal human dermal fibroblasts (NHDF); test: MTT cell viability assay, NHDF; format: cell-based; conditions: Homo sapiens, NHDF, read-out: IC50 NHDF
Protocol: (§4) The cell lines used in this study (Caco-2, MCF-7, PC-3, and NHDF) were obtained from the American Type Culture Collection (ATCC, Manassas, VA, USA) and cultured in 75 cm^2 culture flasks at 37 °C in a humidified atmosphere with 5% CO2 in a LEEC Culture Safe Precision CO2 Incubator. PC-3 cells were grown in Roswell Park Memorial Institute (RPMI) medium supplemented with 10% of inactivated Fetal Bovine Serum (FBS) and 1% of an antibiotic mixture (Sp; 10,000 U/mL of penicillin G and 100 mg/mL of streptomycin). MCF-7 and Caco-2 cell lines were both cultured using Dulbecco’s Modified Eagle Medium (DMEM). However, the medium for MCF-7 cells was complemented with 10% of inactivated FBS and 1% of antibiotic/antimycotic mixture (Ab; 10,000 U/mL of penicillin G, 100 mg/mL of streptomycin and 25 µg/mL of amphotericin B), and the medium for Caco-2 cells was supplemented with 20% of inactivated FBS and 1% of Sp. Finally, RPMI medium supplemented with 10% FBS, 2 mM of L-glutamine, 10 mM of 4-(2-hydroxyethyl)-1-piperazineethanesulfonic acid (HEPES), 1 mM of sodium pyruvate, and 1% of Ab was used to culture NHDF cells. The culture media were renewed every two to three days until near confluence was achieved. Then, cells were detached using a solution of 0.125 g/L of trypsin and 0.02 g/L of ethylenediaminetetracetic acid (EDTA), counted by the trypan blue method, resuspended, and adequately seeded to continue the culture in 75 cm^2 flasks or for the experiments described below. All manipulations were performed in a Labculture Class II A2 Biological Safety Cabinet.

[5] = MTT cell viability assay, NHDF; format: cell-based, human; conditions: human, 10 µM, 72 h, mean ± SD, read-out: cell viability percentage in relation to control, NHDF
Protocol: as §4

[6] = system: PC-3 prostate adenocarcinoma cells; test: MTT cell viability assay, PC-3; conditions: for viability at 10 µM: read-out: cell viability percentage in relation to control, PC-3; for SI PC-3 (selectivity index versus NHDF): PC-3 versus NHDF
Protocol: as §1, §2, §3

Caco-2 cells [7] = test: Caco-2 morphological analysis (optical microscopy); conditions: 24 h
Protocol: Sorbitol and 5-FU were used as positive controls, while untreated cells served as the negative control.
Caco-2 cells near confluency were trypsinized, counted, and then seeded at 3 × 10^4 cells/mL (3 mL) in 35 mm cell culture dishes previously treated for tissue culture. After cell adherence (48 h), they were incubated with solutions under study for 72 h in the absence of light. The cellular morphology was verified every 24 h using a CKX41 SF inverted microscope (Olympus, Tokyo, Japan) with 10, 20, or 40× objectives. A DC6 V digital camera (Olympus, Tokyo, Japan) coupled to the microscope was used to capture cell imaging. The morphology of cells in the presence or absence of treatments was compared.

Caco-2 cells [8] = test: Apoptosis (sub-G1 events) by PI staining and flow cytometry; format: cell-based, human; conditions: Caco-2, 600 mM, incubated for 24 h
Protocol: Given that apoptosis is a common programmed mechanism regulating cell death, characterized by DNA fragmentation and an increase in sub-G1 events, we employed the method described by Riccardi and Nicolleti to assess potential apoptosis induction using flow cytometry. Cyanine dyes 5 and 10 were tested at concentrations of 1 µM and 10 µM, respectively. As positive controls for apoptosis, 600 mM sorbitol and 10 µM 5-FU were used, with untreated cells serving as the negative control. […] In contrast, dye 10 induced a slight increase in apoptosis, reaching 1.7%. […] Apoptotic bodies were more evident in cells treated with dye 5 compared to dye 10, which is further supported by the slightly higher apoptosis induction in this assay.
Apoptosis (sub-G1 events) and cell cycle distribution were evaluated by propidium iodide (PI) staining and flow cytometry, as described by Riccardi and Nicolleti. […] Untreated cells were used as the negative control, and sorbitol and 5-FU were used as positive controls. After incubation, the supernatant was collected in a centrifuge tube, cells were washed with PBS, trypsinized and wells were once again washed with PBS. This cell suspension was maintained on ice, centrifugated at 300 g for 5 min, and then the pellet was resuspended in 0.5 mL of PBS. Cells were fixed by adding 4.5 mL of 70% ethanol cooled at −20 °C on ice and were stored at −20 °C for a period ranging from one to a few days. On the day of flow cytometry analysis, PBS was added to the fixed cell tubes, followed by centrifugation and removal of the supernatant. The pellet was resuspended in 0.5 mL of PBS and 0.5 mL of DNA extraction solution (192 mL of 0.2 M sodium phosphate and 8 mL of […], pH 7.8). After incubation for 5 min, the cells were once again centrifuged, the supernatant was removed, and the pellet was resuspended in 0.3 mL of staining solution (20 µg/mL of PI and 0.2 mg/mL of DNase-free RNase in PBS). Using a FACSCalibur flow cytometer (Becton Dickinson, Franklin Lakes, NJ, USA) with a 488 nm laser line, a minimum of 20,000 events were acquired and recorded using the BD CellQuestTM Pro 4.0.2 software, and analyzed with FlowJo 10.5.3 software. To exclude debris and necrotic cells, events with a lower diameter (forward scatter; FCS) and PI fluorescence (FL3) than the hypodiploid apoptotic cells were eliminated (Figures S1 and S2). Two independent experiments were performed. A Student’s t-test was performed to evaluate the statistical significance of the results.

[9] = Caco-2, SI Caco-2 (selectivity index, cancer versus non-cancer cell line NHDF), Caco-2 versus NHDF, 72 h
[10] = 72 h incubation, MTT, absence of light
[11] = normal human dermal fibroblasts (NHDF)
[12] = Homo sapiens, 72 h, read-out: IC50 PC-3, PC-3, 72 h incubation, MTT

Row | Structure (SMILES) | viability at 10 µM [1] | melting point | IC50 [2] | viability at 10 µM [2] | selectivity ratio at 72 h [3, 9] | IC50 [4, 10] | viability at 72 h, 10 µM [5, 11] | IC50 [6, 12] | viability at 10 µM ([6]; Homo sapiens, 72 h) | SI PC-3 (selectivity index versus NHDF) ([6]; 72 h) | selectivity ratio at 72 h ([3]; Caco-2) | IC50 ([4]; 72 h) | viability at 72 h, 10 µM [5] | IC50 ([6]; read-out: IC50 PC-3, PC-3, 72 h incubation, MTT) | morphological changes of Caco-2 cells (Caco-2 cells [7]) | apoptosis (sub-G1 events), % of cells (Caco-2 cells [8]) | IC50 [1] | SI MCF-7 (selectivity index versus NHDF) [1]
1 | CN1C(=Cc2n(C)c3ccccc3[n+]2C)Sc2ccccc21.[I-] [Dye 4, 1,3-Dimethyl-2-((3-methylbenzo[d]thiazol-2(3H)-ylidene)methyl)-1H-benzo[d]imidazol-3-ium iodide] | 21.6 ± 1.33% | 270 to 272 °C | 230 nM | 7.15 ± 1.08% | 33.6 | 7930 nM | 23.1 ± 1.91% | 2850 nM | 4.09 ± 0.61% | 2.8 |  |  |  |  |  |  |  | 
2 | CN1C=C/C(=C/c2ccc3ccccc3[n+]2C)c2ccccc21 [Dye 12, 1-Methyl-4-((1-methylquinolin-2(1H)-ylidene)methyl)quinolin-1-ium 4-methylbenzenesulfonate] | 4.81 ± 1.56% |  | 730 nM | 10.7 ± 0.43% |  |  |  |  | 9.02 ± 3.29% |  | 0.9 | 630 nM | 5.72 ± 1.91% |  |  |  |  | 
3 | CCCCCCCCCCN1C(=Cc2sc3ccccc3[n+]2C)Sc2ccccc21.[I-] [Dye 2, 3-Methyl-2-((3-decylbenzo[d]thiazol-2(3H)-ylidene)methyl)benzo[d]thiazol-3-ium iodide] | 0.62 ± 0.79% | 217 to 218 °C | 240 nM | 1.09 ± 0.47% | 1.1 | 270 nM | 0.13 ± 0.43% |  | 0.62 ± 0.1% |  |  |  |  |  |  |  |  | 
4 | CCN1C(=Cc2n(CC)c3ccc([N+](=O)[O-])cc3[n+]2CC)Sc2ccccc21.[I-] [Dye 9, 1,3-Diethyl-2-((3-ethylbenzo[d]thiazol-2(3H)-ylidene)methyl)-5-nitro-1H-benzo[d]imidazol-3-ium iodide] | 52.9 ± 8.99% | 219 to 220 °C | 1400 nM | 16.4 ± 0.81% | 17.5 | 24500 nM | 38.2 ± 4.27% |  | 39.5 ± 7.97% |  |  |  |  |  |  |  |  | 
5 | CN1C(=Cc2sc3ccccc3[n+]2C)Oc2ccccc21.Cc1ccc(S(=O)(=O)[O-])cc1 [Dye 3, 3-Methyl-2-((3-methylbenzo[d]oxazol-2(3H)-ylidene)methyl)benzo[d]thiazol-3-ium 4-methylbenzenesulfonate] | 3.04 ± 1.08% |  | 90 nM | 5.81 ± 0.8% | 81.2 | 7530 nM | 23.9 ± 3.05% | 480 nM | 1.81 ± 0.31% | 17.2 |  |  |  | 430 nM |  |  |  | 
6 | CCN1C(=Cc2sc3ccc(N)cc3[n+]2CC)Sc2ccccc21 [Dye 8, 5-Amino-3-ethyl-2-((3-ethylbenzo[d]thiazol-2(3H)-ylidene)methyl)benzo[d]thiazol-3-ium iodide] | 6.18 ± 1.48% |  | 740 nM | 5.21 ± 0.89% | 1.3 | 950 nM | 5.52 ± 0.69% |  | 4.12 ± 1.71% |  |  |  |  |  |  |  |  | 
7 | CN1C(=Cc2sc3ccccc3[n+]2C)C=Cc2ccccc21 [Dye 6, 3-Methyl-2-((1-methylquinolin-2(1H)-ylidene)methyl)benzo[d]thiazol-3-ium 4-methylbenzenesulfonate] | 2.49 ± 0.32% |  | 270 nM | 1.93 ± 0.78% | 2.9 | 790 nM | 4.28 ± 1.24% |  | 4.98 ± 1.62% |  |  |  |  |  |  |  |  | 
8 | OC[C@@H](O)[C@@H](O)[C@H](O)[C@@H](O)CO [sorbitol, reference compound] |  |  |  |  |  |  |  |  |  |  |  |  |  |  | marked increase in apoptotic bodies | 37.9% |  | 
9 | CCN1C(=Cc2sc3cc(N)ccc3[n+]2CC)Sc2ccccc21.[I-] [Dye 11, 6-Amino-3-ethyl-2-((3-ethylbenzo[d]thiazol-2(3H)-ylidene)methyl)benzo[d]thiazol-3-ium iodide] | 7.65 ± 2.8% |  | 170 nM | 9.6 ± 1.47% | 17.1 | 3000 nM | 16.1 ± 2.46% | 2100 nM | 10.5 ± 4.24% | 1.4 |  |  |  |  |  |  | 330 nM | 9.0
10 | CCCCCN1C(=Cc2sc3ccccc3[n+]2C)Sc2ccccc21.[I-] [Dye 1, 3-Methyl-2-((3-pentylbenzo[d]thiazol-2(3H)-ylidene)methyl)benzo[d]thiazol-3-ium iodide] | 0.87 ± 1.05% | 254 to 258 °C | 360 nM | 1.37 ± 0.08% | 1.5 | 550 nM | 0.84 ± 0.26% |  | 0.56 ± 0.12% |  |  |  |  |  |  |  |  | 
11 | CCN1C(=Cc2sc3ccc(NC(C)=O)cc3[n+]2CC)Sc2ccccc21.Cc1ccc(S(=O)(=O)[O-])cc1 [Dye 7, 5-Acetamido-3-ethyl-2-((3-ethylbenzo[d]thiazol-2(3H)-ylidene)methyl)benzo[d]thiazol-3-ium 4-methylbenzenesulfonate] | 11.8 ± 4.3% |  | 140 nM | 9.89 ± 1.38% | 80.5 | 11600 nM | 29 ± 4.76% | 3560 nM | 7.97 ± 4% | 3.3 |  |  |  |  |  |  | 380 nM | 30.2
